Reference: ChEMBL document CHEMBL4257544, “Synthesis and biological evaluation of novel asymmetric naphthalene diimide derivatives as anticancer agents depending on ROS generation” (Medchemcomm, 2018)
Calls of active or inactive are those of the source. The rule behind the calls is not given here.

Tests used:
HepG2 [1] = experiment: Antimigratory activity against human HepG2 cells at 1 to 3 uM after 24 hrs by crystal violet staining based transwell migration assay; type: functional, cell-based
SMMC-7721 [2] = experiment: Antimigratory activity against human SMMC7721 cells after 24 hrs by scratch wound healing assay; type: functional, cell-based
HepG2 [3] = experiment: Induction of apoptosis in human HepG2 cells assessed as increase in cleaved PARP1 protein expression at 1 to 3 uM after 24 hrs by Western blot analysis; type: functional, cell-based
SMMC-7721 [4] = experiment: Induction of apoptosis in human SMMC7721 cells assessed as decrease in Bcl2 protein expression at 1 to 3 uM after 24 hrs by Western blot analysis; type: functional, cell-based
HepG2 [5] = experiment: Induction of ROS generation in human HepG2 cells at 1 to 3 uM after 24 hrs in presence of antioxidant alpha-tocopherol by DCFH-DA staining based HCS analysis; type: functional, cell-based
HepG2 [6] = experiment: Induction of autophagy in human HepG2 cells assessed as decrease in p62 level at 1 to 3 uM by Western blot analysis; type: functional, cell-based
MCF7 = experiment: Cytotoxicity against human MCF7 cells after 48 hrs by MTT assay; type: functional, cell-based; details: MCF7, 48 h
SMMC-7721 [7] = experiment: Induction of apoptosis in human SMMC7721 cells at 3 uM after 48 hrs by Annexin V/propidium iodide staining based flow cytometry relative to control; type: functional
SMMC-7721 [8] = experiment: Antimigratory activity against human SMMC7721 cells treated at 1 hr post antioxidant alpha-tocopherol addition and measured after 24 hrs by scratch wound healing assay; type: functional, cell-based
SMMC-7721 [9] = experiment: Induction of autophagy in human SMMC7721 cells assessed as increase in LC3-2 protein expression treated at 1 hr post antioxidant alpha-tocopherol addition and measured after 24 hrs by Western blot analysis; type: functional, cell-based
SMMC-7721 [10] = experiment: Cytotoxicity against human SMMC7721 cells assessed as morphological changes treated at 1 hr post antioxidant alpha-tocopherol addition and measured after 24 hrs; type: functional, cell-based
SMMC-7721 [11] = experiment: Cytotoxicity against human SMMC7721 cells after 24 hrs by MTT assay; type: functional, cell-based; details: SMMC-7721, 24 h
HepG2 [12] = experiment: Induction of apoptosis in human HepG2 cells assessed as decrease in Bcl2 protein expression at 1 to 3 uM after 24 hrs by Western blot analysis; type: functional, cell-based
HepG2 [13] = experiment: Induction of apoptosis in human HepG2 cells at 3 uM after 48 hrs by Annexin V/propidium iodide staining based flow cytometry relative to control; type: functional
SMMC-7721 [14] = experiment: Cytotoxicity against human SMMC7721 cells assessed as reduction in cell viability in presence of autophagy inhibitor 3-MA by MTT assay; type: functional, cell-based
SMMC-7721 [15] = experiment: Cytotoxicity against human SMMC7721 cells assessed as reduction in cell volume after 24 hrs; type: functional, cell-based
MDA-MB-231 = experiment: Cytotoxicity against human MDA-MB-231 cells after 48 hrs by MTT assay; type: functional, cell-based; details: MDA-MB-231, 48 h
HepG2 [16] = experiment: Induction of apoptosis in human HepG2 cells after 24 hrs by Annexin V/propidium iodide staining based flow cytometry; type: functional, cell-based
HepG2 [17] = experiment: Antimigratory activity against human HepG2 cells treated at 1 hr post antioxidant alpha-tocopherol addition and measured after 24 hrs by scratch wound healing assay; type: functional, cell-based
SMMC-7721 [18] = experiment: Induction of apoptosis in human SMMC7721 cells assessed as increase in p53 protein expression treated at 1 hr post antioxidant alpha-tocopherol addition and measured after 24 hrs by Western blot analysis; type: functional, cell-based
HepG2 [19] = experiment: Induction of apoptosis in human HepG2 cells assessed as increase in cleaved PARP1 protein expression treated at 1 hr post antioxidant alpha-tocopherol addition and measured after 24 hrs by Western blot analysis; type: functional, cell-based
SMMC-7721 [20] = experiment: Downregulation of beta-catenin protein expression in human SMMC7721 cells at 1 to 3 uM after 24 hrs by Western blot analysis; type: functional, cell-based
HepG2 [21] = experiment: Induction of autophagy in human HepG2 cells assessed as vacuolization after 12 hrs; type: functional, cell-based
SMMC-7721 [22] = experiment: Induction of apoptosis in human SMMC7721 cells treated at 1 hr post antioxidant alpha-tocopherol addition and measured after 24 hrs by Annexin V/propidium iodide staining based flow cytometry; type: functional, cell-based
SMMC-7721 [23] = experiment: Induction of autophagy in human SMMC7721 cells assessed as increase in BECN1 level at 1 to 3 uM by Western blot analysis; type: functional, cell-based
HepG2 [24] = experiment: Cytotoxicity against human HepG2 cells assessed as morphological changes treated at 1 hr post antioxidant alpha-tocopherol addition and measured after 24 hrs; type: functional, cell-based
HepG2 [25] = experiment: Induction of autophagy in human HepG2 cells after 24 hrs by MDC staining based HCS analysis; type: functional, cell-based
HepG2 [26] = experiment: Induction of autophagy in human HepG2 cells assessed as increase in LC3-2 protein expression treated at 1 hr post antioxidant alpha-tocopherol addition and measured after 24 hrs by Western blot analysis; type: functional, cell-based
SMMC-7721 [27] = experiment: Cytotoxicity against human SMMC7721 cells assessed as reduction in cell viability treated at 1 hr post antioxidant alpha-tocopherol addition by MTT assay; type: functional, cell-based
HepG2 [28] = experiment: Cytotoxicity against human HepG2 cells after 48 hrs by MTT assay; type: functional, cell-based; details: HepG2, 48 h
HepG2 [29] = experiment: Downregulation of beta-catenin protein expression in human HepG2 cells at 1 to 3 uM after 24 hrs by Western blot analysis; type: functional, cell-based
SMMC-7721 [30] = experiment: Downregulation of beta-catenin protein expression in human SMMC7721 cells treated at 1 hr post antioxidant alpha-tocopherol addition and measured after 24 hrs by Western blot analysis; type: functional, cell-based
HepG2 [31] = experiment: Cytotoxicity against human HepG2 cells assessed as cytoplasm shrinkage after 24 hrs; type: functional, cell-based
SMMC-7721 [32] = experiment: Induction of autophagy in human SMMC7721 cells after 24 hrs by MDC staining based HCS analysis; type: functional, cell-based
HepG2 [33] = experiment: Antimigratory activity against human HepG2 cells after 24 hrs by scratch wound healing assay; type: functional, cell-based
HepG2 [34] = experiment: Induction of apoptosis in human HepG2 cells assessed as increase in caspase-8 activation at 1 to 3 uM after 24 hrs by Western blot analysis; type: functional, cell-based
HepG2 [35] = experiment: Cytotoxicity against human HepG2 cells after 24 hrs by MTT assay; type: functional, cell-based; details: HepG2, 24 h
SMMC-7721 [36] = experiment: Cytotoxicity against human SMMC7721 cells assessed as cell rounding after 24 hrs; type: functional, cell-based
SMMC-7721 [37] = experiment: Induction of autophagy in human SMMC7721 cells assessed as increase in LC3-2 level by Western blot analysis; type: functional, cell-based
SMMC-7721 [38] = experiment: Induction of apoptosis in human SMMC7721 cells assessed as increase in cleaved PARP1 protein expression at 1 to 3 uM after 24 hrs by Western blot analysis; type: functional, cell-based
HepG2 [39] = experiment: Cytotoxicity against human HepG2 cells assessed as reduction in cell viability treated at 1 hr post antioxidant alpha-tocopherol addition by MTT assay; type: functional, cell-based
SMMC-7721 [40] = experiment: Induction of autophagy in human SMMC7721 cells assessed as vacuolization at 2 uM after 12 hrs by transmission electron microscopic method; type: functional, cell-based
HepG2 [41] = experiment: Induction of apoptosis in human HepG2 cells after 24 hrs by acridine orange/ethidium bromide and Hoechst 33342 staining based HCS analysis; type: functional, cell-based
SMMC-7721 [42] = experiment: Induction of apoptosis in human SMMC7721 cells assessed as increase in cleaved PARP1 protein expression treated at 1 hr post antioxidant alpha-tocopherol addition and measured after 24 hrs by Western blot analysis; type: functional, cell-based
SMMC-7721 [43] = experiment: Downregulation of Akt phosphorylation at […] residue in human SMMC7721 cells at 1 to 3 uM after 24 hrs by Western blot analysis; type: functional, cell-based

Compound: CCCCN1C(=O)c2ccc3c4c(ccc(c24)C1=O)C(=O)N(CCCN(C)C)C3=O
- Activity (HepG2 [1]): Active
- Activity (SMMC-7721 [2]): Dose-dependent effect
- Activity (HepG2 [3]): Active
- Activity (SMMC-7721 [4]): Active
- Activity (HepG2 [5]): inactive
- Activity (HepG2 [6]): Active
- IC50 (MCF7): 5.15 µM
- Activity (SMMC-7721 [7]): 52.1%
- Activity (SMMC-7721 [8]): inactive
- Activity (SMMC-7721 [9]): inactive
- Activity (SMMC-7721 [10]): inactive
- IC50 (SMMC-7721 [11]): 5.38 µM
- Activity (HepG2 [12]): Active
- Activity (HepG2 [13]): 67.8%
- Activity (SMMC-7721 [14]): inactive
- Activity (SMMC-7721 [15]): Active
- IC50 (MDA-MB-231): 5.79 µM
- Activity (HepG2 [16]): Dose-dependent effect
- Activity (HepG2 [17]): inactive
- Activity (SMMC-7721 [18]): inactive
- Activity (HepG2 [19]): inactive
- Activity (SMMC-7721 [20]): Active
- Activity (HepG2 [21]): Active
- Activity (SMMC-7721 [22]): inactive
- Activity (SMMC-7721 [23]): Active
- Activity (HepG2 [24]): inactive
- Activity (HepG2 [25]): Dose-dependent effect
- Activity (HepG2 [26]): inactive
- Activity (SMMC-7721 [27]): inactive
- IC50 (HepG2 [28]): 1480 nM
- Activity (HepG2 [29]): Active
- Activity (SMMC-7721 [30]): inactive
- Activity (HepG2 [31]): Active
- Activity (SMMC-7721 [32]): Dose-dependent effect
- Activity (HepG2 [33]): Dose-dependent effect
- Activity (HepG2 [34]): Active
- IC50 (HepG2 [35]): 4.29 µM
- Activity (SMMC-7721 [36]): Active
- Activity (SMMC-7721 [37]): Dose-dependent effect
- Activity (SMMC-7721 [38]): Active
- Activity (HepG2 [39]): inactive
- Activity (SMMC-7721 [40]): Active
- Activity (HepG2 [41]): Dose-dependent effect
- Activity (SMMC-7721 [42]): inactive
- Activity (SMMC-7721 [43]): Active
